# Article PMC4476799, “Englerin A Agonizes the TRPC4/C5 Cation Channels to Inhibit Tumor Cell Line Proliferation” (PLoS ONE, 2015)
# Like-named read-outs stand apart in the source and are kept apart here.
# Tested on: cancer cell lines from the cancer cell line encyclopedia (CCLE)
# Experiment: Cell line profiling (CLiP) proliferation experiment
# Type: cell-based
# Conditions: Homo sapiens; for IC50: read-out: Crossing Point; for EC50: read-out: Inflection Point
# Description: Compound profiling experiment and data analysis was performed as previously described. Data was imported and plotted using the Tibco Spotfire DXP application. Lines were categorized as sensitive, intermediate and refractory as follows: Amax<-40 & Inflection Point <2 ~ Sensitive, Amax>-20 & Inflection Point >10 ~ Refractory, all else were called Intermediate. Cancer Cell line HG-U133 Plus 2 data was processed and normalized as described. […] Five sets of refractory cell lines were generated from the pool of refractory cell lines trying to match the lineage composition of the set of sensitive cell lines. The limma package was used as previously described to perform the statistical comparison.
# [1] = CHP-212, CHP-212, autonomic_ganglia, NS
# [2] = COLO 205, COLO 205, large_intestine, adenocarcinoma
# [3] = COLO-668, COLO 668, lung, small_cell_carcinoma
# [4] = COR-L279, COR-L279, lung, small_cell_carcinoma
# [5] = Calu-6, Calu-6, lung, undifferentiated_carcinoma
# [6] = DMS-114, DMS 114, lung, small_cell_carcinoma
# [7] = DMS-273, DMS 273, lung, small_cell_carcinoma
# [8] = DOHH-2, cell line DOHH-2, haematopoietic_and_lymphoid_tissue
# [9] = EFM-19, cell line EFM-19, breast
# [10] = FaDu, cell line FaDu, upper_aerodigestive_tract
# [11] = G-401, cell line G-401, soft_tissue
# [12] = HCC1143, cell line HCC1143, breast
compound,measurement,setting,value
CC(C)[C@@]12C[C@@H](O)[C@@](C)(O1)[C@@H]1CC[C@@H](C)[C@H]1[C@@H]2OC(=O)/C=C/c1ccccc1 [Englerin B],IC50,"CHL-1, CHL-1, skin, NS",26.2 µM
same,IC50,"CHL-1, CHL-1 cells",26.2 µM
same,IC50,[1],22.7 µM
same,EC50,[1],13.9 µM
same,EC50,"CHP-212, CHP-212 cells",13.9 µM
same,IC50,"CMK, CMK cells",> 30 µM
same,IC50,[2],16.5 µM
same,EC50,[2],11.8 µM
same,EC50,"COLO 205, COLO 205 cells",11.8 µM
same,IC50,"COLO 320, COLO-320, large_intestine, adenocarcinoma",11 µM
same,IC50,[3],26 µM
same,EC50,[3],26 µM
same,IC50,"COLO-668, COLO 668 cells",26 µM
same,EC50,"COLO-668, COLO 668 cells",26 µM
same,IC50,"COLO-680N, COLO-680N (oesophagus)",> 30 µM
same,IC50,"COLO-680N, oesophagus, squamous_cell_carcinoma",> 30 µM
same,IC50,"COLO-741, COLO 741, skin, NS",> 30 µM
same,EC50,"COLO-741, COLO 741, skin, NS",11.6 µM
same,IC50,"COLO-741, COLO 741 cells",> 30 µM
same,EC50,"COLO-741, COLO 741 cells",11.6 µM
same,IC50,"COLO-800, COLO-800, skin, NS",> 30 µM
same,IC50,"COLO-800, cell line COLO-800 (skin, NS)",> 30 µM
same,IC50,"COLO-829, COLO 829, skin, NS",> 30 µM
same,IC50,"COLO-829, COLO 829 cells",> 30 µM
same,IC50,"COR-L23, COR-L23 (lung)",> 30 µM
same,IC50,"COR-L23, COR-L23, lung, large_cell_carcinoma",> 30 µM
same,IC50,"COR-L47, COR-L47, lung, small_cell_carcinoma",> 30 µM
same,IC50,"COR-L47, COR-L47 cells",> 30 µM
same,IC50,"COR-L88, COR-L88 (lung)",> 30 µM
same,IC50,"COR-L88, COR-L88, lung, small_cell_carcinoma",> 30 µM
same,IC50,[4],6.69 µM
same,EC50,[4],6.69 µM
same,IC50,"Calu-1, Calu-1, lung, squamous_cell_carcinoma",> 30 µM
same,IC50,"Calu-1, cell line Calu-1",> 30 µM
same,IC50,"Calu-3, Calu-3 (lung)",> 30 µM
same,IC50,"Calu-3, Calu-3, lung, adenocarcinoma",> 30 µM
same,IC50,[5],> 30 µM
same,EC50,[5],11.6 µM
same,IC50,"Calu-6, Calu-6 cells",> 30 µM
same,EC50,"Calu-6, Calu-6 cells",11.6 µM
same,IC50,"Caov-3, Caov-3, ovary, adenocarcinoma",15.3 µM
same,IC50,"DBTRG-05MG, cell line DBTRG-05MG (central_nervous_system, astrocytoma_Grade_IV)",> 30 µM
same,IC50,"DBTRG-05MG, central_nervous_system, astrocytoma_Grade_IV",> 30 µM
same,IC50,"DLD-1, DLD-1, large_intestine, adenocarcinoma",21.7 µM
same,IC50,"DMS-79, DMS 79 (lung)",> 30 µM
same,IC50,"DMS-79, cell line DMS 79, lung",> 30 µM
same,IC50,[6],17.5 µM
same,EC50,[6],11.7 µM
same,IC50,"DMS-114, cell line DMS 114",17.5 µM
same,IC50,[7],16.4 µM
same,EC50,[7],13.7 µM
same,IC50,[8],13.1 µM
same,EC50,[8],12.9 µM
same,IC50,"DU-145, cell line DU 145, prostate",8.94 µM
same,IC50,"DV-90, cell line DV-90, lung",18 µM
same,EC50,"DV-90, cell line DV-90, lung",14.9 µM
same,IC50,"Daoy, Daoy (central_nervous_system)",> 30 µM
same,IC50,"Daoy, central_nervous_system, NS",> 30 µM
same,IC50,"Detroit 562, Detroit 562, upper_aerodigestive_tract, NS",> 30 µM
same,IC50,"Detroit 562, cell line Detroit 562",> 30 µM
same,IC50,"EBC-1, cell line EBC-1, lung",24 µM
same,EC50,"EBC-1, cell line EBC-1, lung",11.6 µM
same,IC50,"EFM-19, cell line EFM-19 (breast, ductal_carcinoma)",> 30 µM
same,IC50,[9],> 30 µM
same,EC50,[9],7.15 µM
same,IC50,"EOL1, cell line EOL-1, haematopoietic_and_lymphoid_tissue",11.8 µM
same,IC50,"ESS-1, cell line ESS-1, endometrium",18.7 µM
same,IC50,[10],17.8 µM
same,EC50,[10],12.9 µM
same,IC50,"G-361, cell line G-361, skin",> 30 µM
same,IC50,"G-361, cell line G-361",> 30 µM
same,IC50,[11],14.3 µM
same,EC50,[11],11.9 µM
same,EC50,"G-401, cell line G-401",11.9 µM
same,IC50,"G-402, cell line G-402, soft_tissue",9.9 µM
same,IC50,"GA-10, cell line GA-10, haematopoietic_and_lymphoid_tissue",> 30 µM
same,IC50,"GA-10, cell line GA-10",> 30 µM
same,IC50,"GAMG, GAMG (central_nervous_system)",> 30 µM
same,IC50,"GAMG, cell line GAMG, central_nervous_system",> 30 µM
same,IC50,"GCIY, cell line GCIY, stomach",15.8 µM
same,IC50,"GMS-10, cell line GMS-10, central_nervous_system",> 30 µM
same,IC50,"GMS-10, cell line GMS-10",> 30 µM
same,IC50,"Granta-519, cell line GRANTA-519, haematopoietic_and_lymphoid_tissue",> 30 µM
same,IC50,"Granta-519, cell line GRANTA-519",> 30 µM
same,IC50,"HCC38, cell line HCC38, breast",> 30 µM
same,IC50,"HCC38, cell line HCC38",> 30 µM
same,IC50,"HCC44, cell line HCC-44, lung",22.8 µM
same,IC50,"HCC95, cell line HCC-95, lung",27.6 µM
same,EC50,"HCC95, cell line HCC-95, lung",26.7 µM
same,IC50,"HCC827, cell line HCC827, lung",19.3 µM
same,IC50,[12],> 30 µM
same,EC50,[12],9.85 µM
